We go through 13 compounds from patent publication US6627399B1, “RNA polymerase transcription promoters and nucleic acid sequencing method” (Riken, priority 1998, dated 2003).

Chain of wild-type T7 RNA polymerase (P00573 whole entry): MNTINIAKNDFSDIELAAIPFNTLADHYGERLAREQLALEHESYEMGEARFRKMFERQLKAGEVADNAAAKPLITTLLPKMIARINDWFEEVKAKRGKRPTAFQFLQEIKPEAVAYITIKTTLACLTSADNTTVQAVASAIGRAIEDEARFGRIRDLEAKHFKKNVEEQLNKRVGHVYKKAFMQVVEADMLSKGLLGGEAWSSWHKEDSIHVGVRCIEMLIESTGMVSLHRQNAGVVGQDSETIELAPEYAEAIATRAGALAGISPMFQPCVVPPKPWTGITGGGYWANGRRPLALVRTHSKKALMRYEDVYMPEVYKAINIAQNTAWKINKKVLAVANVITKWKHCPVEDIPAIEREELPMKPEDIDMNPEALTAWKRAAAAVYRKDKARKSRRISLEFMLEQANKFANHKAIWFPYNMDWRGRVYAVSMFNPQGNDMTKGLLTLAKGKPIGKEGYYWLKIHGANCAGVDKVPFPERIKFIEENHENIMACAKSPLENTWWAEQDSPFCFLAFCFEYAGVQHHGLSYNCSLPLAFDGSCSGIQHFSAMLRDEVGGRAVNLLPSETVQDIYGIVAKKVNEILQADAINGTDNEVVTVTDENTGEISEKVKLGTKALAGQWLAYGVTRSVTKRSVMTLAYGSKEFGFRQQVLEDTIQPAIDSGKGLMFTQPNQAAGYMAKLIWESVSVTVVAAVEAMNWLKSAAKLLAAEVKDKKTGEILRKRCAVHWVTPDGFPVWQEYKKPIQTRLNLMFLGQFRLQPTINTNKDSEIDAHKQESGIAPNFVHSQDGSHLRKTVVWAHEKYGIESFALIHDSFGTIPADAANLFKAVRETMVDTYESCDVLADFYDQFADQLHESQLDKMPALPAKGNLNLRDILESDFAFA

The target of this experiment is wild-type T7 RNA polymerase (Escherichia phage T7, UniProt P00573). Nature of the experiment: Accelerating effect of polyamines on in vitro transcription activity of T7 RNA polymerase ([α32P]UTP incorporation, gel electrophoresis). On the set-up: key: fold radioactivity relative to blank without polyamine. Format: biochemical, bacteriophage T7. Conditions: polyamine final concentration 2 mM, 37° C. for one hour; amplification of radioactivity of transcription products compared to a blank without polyamine. The protocol:
An activation level was evaluated by observing an effect of a polyamine on in vitro transcription activation using bacteriophage T7 RNA polymerase in the reaction system below.
Each polyamine was added to 10 μl of reaction solution (40 mM Tris-Cl, pH 8.0, 8 mM MgCl2, 5 mM DTT, 200 µM GMP, wild-type T7 RNA polymerase 5U, 0.2 μCi [α32P]UTP, dsDNA produced by cleavage of pBluescript [Stratagene] by a restriction enzyme Pvull 500 μM as rNTP template DNA) to yield a final concentration of 2 mM, then reacted at 37° C. for one hour. After the reaction, 10 μl of formamide loading dye (98% formamide, 10 mM EDTA) was added to the products, heated at 90° C. for modification, subsequently analyzed by electrophoresis on 4% acrylamide gel. The gel was dried after the electrophoresis, observed for radioactivity contained in the transcription products using the BAS2000 image analysis system (Fujiphotofilm Inc.), and evaluated for activation level of each polyamine.
Data is given in amplification of radioactivity compared to a blank in which a reaction is carried out in parallel in the same condition excepting no polyamine was added.
Take `CCNCCCCNCCCCNCCCCNCC` [Compound 15a, 1,14-di(ethylamino)-5,10-diazatetradecane]: the “Activity Level” value worked out at 1.21.
As for `CCNCCCCNCCCCCNCCCCNCC` [Compound 15b, 1,15-di(ethylamino)-5,11-diazapentadecane], the “Activity Level” value is reported as 1.18.
To `CCNCCCCNCCCCCCNCCCCNCC` [Compound 15c, 1,16-di (ethylamino)-5,12-diazahexadecane] belongs 1.12.
With `CCNCCCCNCCCCCCCNCCCCNCC` [Compound 15d, 1,17-di(ethylamino)-5,13-diazaheptadecane], the “Activity Level” value is listed as 1.29.
The figure for `CCNCCCCNCCCCCCCCNCCCCNCC` [Compound 15e, 1, 18-di(ethylamino)-5,14-diazaoctadecane] is 2.52; for `CCNCCCCNCCCCCCCCCNCCCCNCC` [Compound 15f, 1,19-di(ethylamino)-5,15-diazanonadecane] it is 1.18; for `CCNCCCCNCCCCCCCCCCNCCCCNCC` [Compound 15g, 1,20-di(ethylamino)-5,16-diazaeicosane] it is 2.01.
For the compound `CCNCCCNCCCCN` [Compound 18, 1-ethylamino-8-amino-4-azaoctane], the “Activity Level” value came to 1.12.
`NCCCCNCCCCCCCCNCCCCN` [Compound 19, 1,18-diamino-5,14-diazaoctadecane]: the “Activity Level” value worked out at 1.41.
To `CCN(CCCCCCCCN(CC)S(=O)(=O)c1ccc(C)cc1)S(=O)(=O)c1ccc(C)cc1` [Compound 20, N1,N8-di(p-toluenesulfonyl)-di(ethylamino)-octane] belongs 1.11.
For the compound `CCNCCCCCCCCNCC` [Compound 21, N1,N8di(ethylamino)-octane], the “Activity Level” value amounted to 4.91.
Regarding `CCN(CCCCCN(CC)S(=O)(=O)c1ccc(C)cc1)S(=O)(=O)c1ccc(C)cc1` [Compound 22, N1,N5-di(p-toluenesulfonyl)-di(ethylamino)pentane], the “Activity Level” value was determined as 1.43.
Consider `CCNCCCCCNCC` [Compound 23, N1,N5-di(ethylamino)pentane], for which the “Activity Level” value turned out to be 3.52.
